Tests used:
DYRK1A = target: T1, DYRK1A (Homo sapiens, UniProt Q13627); assay: Cook activity assay (ATP regenerative NADH consuming DYRK1A activity assay); assay type: biochemical
T1 construct: kinase domain of DYRK1A (126–490) was cloned into pET24a with C-terminal His-tag; His-tag (C); made in house; host or cells: E. coli BL21 (DE3) RIL

[1] = test system: hiPSC-derived pancreatic organoids; assay: Insulin secretion assay in hiPSC-derived β-cell organoids (ELISA); assay type: cell-based, human; parameters: key to insulin secretion (ELISA): ↑: moderate; ↑↑: most potent
Procedure: Differentiation of hiPSC into iPSC-derived β-cell islets was carried out following the protocol established by Pellegrini et al. for pluripotent stem cells with slight modifications. A day before differentiation, 800,000 cells were seeded on coated with Geltrex (Gibco) 12 wells plate in Essential 8 medium (Gibco) with Y-27632 10 µM (Abcam). The following culture media were used for differentiation:
M1 medium: MCDB131 (Gibco) + 8 mM D-(þ)-Glucose (Sigma) + 1.23 g/L NaHCO3 (Sigma) + 2% BSA (Sigma) + 0.25 mM Vitamin C (Sigma) + 1% Pen/Strep (Lonza, Basel, Switzerland) + 1% L-glutamine (Lonza);
M2 medium: MCDB131 + 20 mM D-Glucose + 1.754 g/L NaHCO3 + 2% BSA + 0.25 mM Vitamin C + Heparin 10mg/mL (Sigma) + 1% Pen/Strep + 1% L-glutamine. All media were filter-sterilized through a 0.22 µm bottle top filter (Corning, New York, NY, USA). For sequential culture medium changes, small molecules and growth factors were added to the base media immediately before daily exchange. Media switches were as follows: days 0–3: STEMdiff™ Definitive Endoderm Kit ([…], Vancouver, Canada) used following manufacturer instructions; days 4–6: M1 medium + 50 ng/mL KGF (Peprotech, London, UK) + 1:50,000 ITS-X (Invitrogen, Carlsbad, CA, USA); days 7–8: M1 medium + 50 ng/mL KGF + 0.25 µM Sant1 (Sigma) + […] Retinoic acid (RA) (Sigma) + 500 nM PdBU (Millipore, Berlington, MA, United States) + 1:200 ITS-X + 200 nM LDN193189 (only Day 7) (Sigma); days 9–13: M1 medium + 50 ng/mL KGF + 0.25 µM Sant1 + 100 nM RA + 1:200 ITS-X; days 14–18: M2 medium + 0.25 µM Sant1 + 100 nM RA + 1 µM XXI (Millipore) + 10 µM Alk5i II (Selleckchem, Munich, Germany) + 1 µM L-3,30,5-Triiodothyronine (T3) (Sigma) + 20 ng/mL Betacellulin (R&D, Minneapolis, MN, USA) + 1:200 ITS-X.
The Insulin ELISA (Ultra Sensitive) was used to quantify insulin levels in control and treated organoids and isolated islets from the mouse pancreas (Crystal Chem, Downers Grove, IL, USA). Islets were homogenized in lysis buffer. Obtained buffer lysates and medium samples (after GSIS) were analyzed for total protein level and subsequently processed following the manufacturer’s protocol.

DYRK1A kinase domain = target: T2, DYRK1A kinase domain (Homo sapiens, UniProt Q13627); assay: MST direct binding assay
T2 construct: kinase domain of DYRK1A (126–490) was cloned into pET24a with C-terminal His-tag; made in house; host or cells: E. coli BL21 (DE3) RIL

INS-1E cells = assay: Cell cycle analysis (propidium iodide); assay type: cell-based, rat; settings: 5 µM, 24 h
Procedure: To synchronize cell cultures, we used the serum starvation protocol. INS-1E cells were seeded in a 6-well plate in a growth medium with 20% FBS overnight. Then the cultures were rinsed by PBS and change to a serum-free medium. After serum starvation for 24 h, cells were released into the cell cycle by the addition of serum and 5 µM inhibitor solution for 24 h. The cells were then detached from the plate using trypsin. Then after washing, they were incubated with 50 µg/mL propidium iodide for 15 min in the dark. Cells were analyzed with the BDAccuri flow cytometer and calculated using FlowJo software.

DYRK1A in MIN6 cell line = assay: DYRK1A expression by flow cytometry and confocal imaging; assay type: cell-based, mouse
Procedure: The presence of insulin, glucagon, C-peptide, Ki67, and DYRK1A was assessed in MIN6 and INS-1E pancreatic cell lines. Before imaging, cells were seeded onto slides at a density of 1 × 10^5 cells and maintained at 37 °C in 95% atmospheric air and 5% CO2 in a humidified atmosphere for 24 h. After washing with fresh medium, cells were incubated with 5 µM inhibitor solution for 24 h. After this time, the solution was replaced with a culture medium for another 48 h. The cells were fixed. Then after washing and permeabilization, they were incubated with specific antibodies diluted in PBS. Next, the cells were incubated for 10 min with Hoechst33342 (Sigma-Aldrich). After incubation, at 37 °C, in the dark, the cells were washed twice with HBSS (Gibco), the slide was transferred to a microscope table, and the cells were visualized under a Zeiss LSM 880 confocal microscope (Carl Zeiss, Jena, Germany) with a 63× immersion objective. Images were analyzed by Zeiss ZEN Software.
The presence of insulin, glucagon, C-peptide, Ki67 and DYRK1A was assessed in MIN6 and INS-1E pancreatic cell lines. Before analysis, cells were seeded onto slides at a density of 1 × 10^5 cells and maintained at 37 °C in 95% atmospheric air and 5% CO2 in a humidified atmosphere for 24 h. After washing with fresh medium, cells were incubated with 5 µM inhibitor solution for 24 h. After this time, the solution was replaced with a culture medium for another 48 h. The cells were then detached from the plate using trypsin. The cells were fixed. Then after washing and permeabilization, they were incubated with specific antibodies diluted in PBS. Cells were analyzed with BDAccuri flow cytometer and calculated using FlowJo software (Ashland, Oregon-based FlowJo LLC, a subsidiary of Becton Dickinson).

[2] = Table 2, Biochemistry, unit inferred

## O=c1ccc2cnc3ccc(-c4cn[nH]c4)cc3c2n1-c1ccc(F)cc1C(F)(F)F [AC27, 1-(4-fluoro-2-(trifluoromethyl)phenyl)-9-(1H-pyrazol-4-yl)benzo[h][1, 6]naphthyridin-2-one]
DYRK1A; Cook assay, DYRK1A 0.5 µM, ATP 128 µM, DYRKtide 1 mM
  Ki: 200 ± 300 nM
DYRK1A; Cook assay, phosphorylation of substrate peptide
  Ki: < 200 nM
DYRK1A; [2]
  Ki: 170 ± 260 nM
[1]; GSIS, compared with untreated control cells
  insulin release: markedly increased insulin release
[1]; Table 2, hiPSC
  insulin secretion (ELISA): ↑
DYRK1A kinase domain; MST direct binding, 20 nM fluorescent-labelled DYRK1A kinase domain
  Kd: 1800 ± 500 nM
DYRK1A kinase domain; [2]
  Kd: 1830 ± 543 nM
INS-1E cells
  number of cells in the G2/M phase: increase
DYRK1A in MIN6 cell line; MIN6, 24 h with inhibitor, control 74%
  DYRK1A (fluorescence-positive cells, flow cytometry): 33%
DYRK1A in MIN6 cell line; MIN6, vs untreated control
  DYRK1A signal in confocal imaging: reduced

Reference: article PMC8467532, “DYRK1A Kinase Inhibitors Promote β-Cell Survival and Insulin Homeostasis” (Cells, 2021)
